Experimental data as given in patent US5373000A, “7Beta-(thiadiazolyl)-2-iminoacetamido-3cephem compounds” (Eisai Co., Ltd., priority 1985, dated 1994).
Converted amounts (≈) assume the structure as drawn. Like-named read-outs stand apart in the source and are kept apart here.

Columns and labels:
Staph. aureus 209-P = assay: Antibacterial activities, MIC; type: cell-based
Escher. coli NIHJ = assay: Antibacterial activities, MIC; type: cell-based
Kleb Pneumoniae EK-6 = assay: Antibacterial activities, MIC; type: cell-based
Ser. marcescens ES-75 = assay: Antibacterial activities, MIC; type: cell-based
Morg. morganii EP-14 = assay: Antibacterial activities, MIC; type: cell-based
Pseud. aeruginosa EP-01 = assay: Antibacterial activities, MIC; type: cell-based
in vivo = details: mouse, iv
[1] = Staphylococcus aureus, read-out: MIC
[2] = Escherichia coli, read-out: MIC
[3] = Serratia marcescens, ES75, read-out: MIC
[4] = Morganella morganii, EP14, Morg. morganii EP-14, read-out: MIC
[5] = Pseudomonas aeruginosa, EP01, Pseud. aeruginosa EP-01, read-out: MIC

Row | SMILES | MIC (Staph. aureus 209-P; [1]) | MIC (Escher. coli NIHJ; [2]) | MIC (Kleb Pneumoniae EK-6; read-out: MIC) | MIC (Ser. marcescens ES-75; [3]) | MIC (Morg. morganii EP-14; [4]) | MIC (Pseud. aeruginosa EP-01; [5]) | LD50 (in vivo) | MIC (Staph. aureus 209-P) | MIC (Escher. coli NIHJ) | MIC (Kleb Pneumoniae EK-6) | MIC (Ser. marcescens ES-75) | MIC (Morg. morganii EP-14; Morg. morganii EP-14) | MIC (Pseud. aeruginosa EP-01; Pseud. aeruginosa EP-01)
1 | CO/N=C(\C(=O)N[C@@H]1C(=O)N2C(C(=O)[O-])=C(/C=C/C[N+](C)(C)CC(N)=O)CS[C@H]12)c1nsc(N)n1 [Example 1, 7β-[2-(5-Amino-1,2,4-thiadiazol-3-yl)-(Z)-2-methoxyiminoacetamido]-3-[(E)-3-(carbamoylmethyldimethylammonio)-1-propen-1-yl)-3-cephem-4-carboxylate] | 0.4 µg/mL (≈ 0.763 µM) | 0.05 µg/mL (≈ 0.0953 µM) | 0.05 µg/mL (≈ 0.0953 µM) | 0.1 µg/mL (≈ 0.191 µM) | 0.05 µg/mL (≈ 0.0953 µM) | 0.8 µg/mL (≈ 1.53 µM) | ≥ 3000 mg/kg | – | – | – | – | – | –
2 | CO/N=C(\C(=O)N[C@@H]1C(=O)N2C(C(=O)[O-])=C(/C=C/C[N+](C)(C)Cc3nnco3)CS[C@H]12)c1nsc(N)n1 [Example 20, 7β-[2-(5-Amino-1,2,4-thiadiazol-3-yl)-(Z)-2-methoxyiminoacetamido]-3-[(E)-3-[(1,3,4-oxadiazol-2-yl)methyldimethylammonio]-1-propen-1-yl]-3-cephem-4-carboxylate] | 0.4 µg/mL (≈ 0.728 µM) | ≤ 0.025 µg/mL | ≤ 0.025 µg/mL | 0.1 µg/mL (≈ 0.182 µM) | 0.05 µg/mL (≈ 0.091 µM) | 0.8 µg/mL (≈ 1.46 µM) | ≥ 3000 mg/kg | – | – | – | – | – | –
3 | CO/N=C(\C(=O)N[C@@H]1C(=O)N2C(C(=O)[O-])=C(/C=C/C[N+](C)(C)Cc3csc(N)n3)CS[C@H]12)c1nsc(N)n1 [Example 25] | 0.2 µg/mL (≈ 0.345 µM) | ≤ 0.025 µg/mL | 0.03 µg/mL (≈ 0.0518 µM) | 0.03 µg/mL (≈ 0.0518 µM) | 0.05 µg/mL (≈ 0.0863 µM) | 3.13 µg/mL (≈ 5.4 µM) | – | – | – | – | – | – | –
4 | CO/N=C(\C(=O)N[C@@H]1C(=O)N2C(C(=O)[O-])=C(/C=C/C[N+](C)(C)Cc3ccoc3)CS[C@H]12)c1nsc(N)n1 [Example 26, 7β-[2-(5-Amino-1,2,4-thiadiazol-3-yl)-(Z)-2-methoxyiminoacetamido]-3-[(E)-3-[(furan-3-yl)-methyldimethylammonio]-1-propen-1-yl]-3-cephem-4-carboxylate] | 0.2 µg/mL (≈ 0.365 µM) | ≤ 0.025 µg/mL | ≤ 0.025 µg/mL | 0.05 µg/mL (≈ 0.0913 µM) | ≤ 0.025 µg/mL | 3.13 µg/mL (≈ 5.72 µM) | – | – | – | – | – | – | –
5 | CO/N=C(\C(=O)N[C@@H]1C(=O)N2C(C(=O)[O-])=C(/C=C/C[N+]3(C)CCN(S(N)(=O)=O)CC3)CS[C@H]12)c1nsc(N)n1 [Example 27, 7β-[2-(5-Amino-1,2,4-thiadiazol-3-yl)-(Z)-2-methoxyiminoacetamido]-3-[(E)-3-(1-methyl-4-sulfamoyl-1-piperazinio)-1-propen-1-yl]-3-cephem-4-carboxylate] | 0.2 µg/mL (≈ 0.332 µM) | ≤ 0.025 µg/mL | ≤ 0.025 µg/mL | 0.1 µg/mL (≈ 0.166 µM) | 0.05 µg/mL (≈ 0.0831 µM) | 0.8 µg/mL (≈ 1.33 µM) | – | – | – | – | – | – | –
6 | CO/N=C(\C(=O)N[C@@H]1C(=O)N2C(C(=O)[O-])=C(/C=C/C[N+]3(C)CCN(C=N)CC3)CS[C@H]12)c1nsc(N)n1 [Example 28, 7β-[2-(5-Amino-1,2,4-thiadiazol-3-yl)-(Z)-2-methoxyiminoacetamido]-3-[(E)-3-(1-methyl-4-formimidoyl-1-piperazinio)-1-propen-1-yl]-3-cephem-4-carboxylate] | 0.4 µg/mL (≈ 0.728 µM) | 0.05 µg/mL (≈ 0.091 µM) | 0.1 µg/mL (≈ 0.182 µM) | 0.2 µg/mL (≈ 0.364 µM) | 0.1 µg/mL (≈ 0.182 µM) | 1.56 µg/mL (≈ 2.84 µM) | – | – | – | – | – | – | –
7 | CO/N=C(\C(=O)N[C@@H]1C(=O)N2C(C(=O)[O-])=C(/C=C/C[N+]3(C)CCN(C(N)=O)CC3)CS[C@H]12)c1nsc(N)n1 [Example 29, 7β-[2-(5-Amino-1,2,4-thiadiazol-3-yl)-(Z)-2-methoxyiminoacetamido]-3-[(E)-3-(1-methyl-4-carbamoyl-1-piperazinio)-1-propen-1-yl]-3-cephem-4-carboxylate] | 0.4 µg/mL (≈ 0.707 µM) | 0.05 µg/mL (≈ 0.0884 µM) | 0.05 µg/mL (≈ 0.0884 µM) | 0.1 µg/mL (≈ 0.177 µM) | 0.05 µg/mL (≈ 0.0884 µM) | 1.56 µg/mL (≈ 2.76 µM) | – | – | – | – | – | – | –
8 | CO/N=C(\C(=O)N[C@@H]1C(=O)N2C(C(=O)[O-])=C(/C=C/C[N+]3(C)CCS(=O)(=O)CC3)CS[C@H]12)c1nsc(N)n1 [Example 31, 7β-[2-(5-Amino-1,2,4-thiadiazol-3-yl)-(Z)-2-methoxyiminoacetamido]-3-[(E)-3-(1,1-dioxo-4-methyl-4-thiomorpholinio)-1-propen-1-yl]-3-cephem-4-carboxylate] | 0.4 µg/mL (≈ 0.7 µM) | 0.05 µg/mL (≈ 0.0875 µM) | ≤ 0.025 µg/mL | 0.1 µg/mL (≈ 0.175 µM) | 0.05 µg/mL (≈ 0.0875 µM) | 0.8 µg/mL (≈ 1.4 µM) | – | – | – | – | – | – | –
9 | CO/N=C(\C(=O)N[C@@H]1C(=O)N2C(C(=O)[O-])=C(/C=C/C[N+]34CCN(CC3)CC4)CS[C@H]12)c1nsc(N)n1 [Example 32, 7β-[2-(5-Amino-1,2,4-thiadiazol-3-yl)-(Z)-2-methoxyiminoacetamido]-3-[(E)-3-(1,4-diazabicyclo[2,2,2]octan-1-io)-1-propen-1-yl]-3-cephem-4-carboxylate] | 0.2 µg/mL (≈ 0.374 µM) | ≤ 0.025 µg/mL | ≤ 0.025 µg/mL | 0.1 µg/mL (≈ 0.187 µM) | 0.05 µg/mL (≈ 0.0935 µM) | 0.8 µg/mL (≈ 1.5 µM) | – | – | – | – | – | – | –
10 | CO/N=C(\C(=O)N[C@@H]1C(=O)N2C(C(=O)[O-])=C(/C=C/C[N+]3(C)CC=C(C(N)=O)CC3)CS[C@H]12)c1nsc(N)n1 (stereo partly drawn) [Example 34, 7β-[2-(5-Amino-1,2,4-thiadiazol-3-yl)-(Z)-2-methoxyiminoacetamido]-3-[(E)-3-(1-methyl-4-carbamoyl-1,2,3,6-tetrahydropyridinio)-1-propen-1-yl]-3-cephem-4-carboxylate] | 0.2 µg/mL (≈ 0.355 µM) | ≤ 0.025 µg/mL | 0.1 µg/mL (≈ 0.178 µM) | 0.1 µg/mL (≈ 0.178 µM) | 0.05 µg/mL (≈ 0.0889 µM) | 0.8 µg/mL (≈ 1.42 µM) | – | – | – | – | – | – | –
11 | CO/N=C(\C(=O)N[C@@H]1C(=O)N2C(C(=O)[O-])=C(/C=C/C[N+](C)(C)CCC(N)=O)CS[C@H]12)c1nsc(N)n1 [Example 35, 7β-[2-(5-Amino-1,2,4-thiadiazol-3-yl)-(Z)-2-methoxyiminoacetamido]-3-[(E)-3-[N,N-dimethyl-N-(2-carbamoylethyl)ammonio]-1-propen-1-yl]-3-cephem-4-carboxylate] | 0.2 µg/mL (≈ 0.371 µM) | ≤ 0.025 µg/mL | 0.1 µg/mL (≈ 0.186 µM) | 0.05 µg/mL (≈ 0.0928 µM) | 0.05 µg/mL (≈ 0.0928 µM) | 0.8 µg/mL (≈ 1.49 µM) | – | – | – | – | – | – | –
12 | CO/N=C(\C(=O)N[C@@H]1C(=O)N2C(C(=O)[O-])=C(/C=C/C[N+]34CCCN3CCC4)CS[C@H]12)c1nsc(N)n1 [Example 38, 7β-[2-(5-Amino-1,2,4-thiadiazol-3-yl)-(Z)-2-methoxyiminoacetamido]-3-[(E)-3-(1,5-diazabicyclo[3,3,0]octan-1-io)-1-propen-1-yl]-3-cephem-4-carboxylate] | 0.2 µg/mL (≈ 0.374 µM) | ≤ 0.025 µg/mL | ≤ 0.025 µg/mL | 0.1 µg/mL (≈ 0.187 µM) | 0.05 µg/mL (≈ 0.0935 µM) | 1.56 µg/mL (≈ 2.92 µM) | – | – | – | – | – | – | –
13 | CO/N=C(\C(=O)N[C@@H]1C(=O)N2C(C(=O)[O-])=C(/C=C/C[N+](C)(C)[C@H](C)C(N)=O)CS[C@H]12)c1nsc(N)n1 [Example 42] | 0.2 µg/mL (≈ 0.371 µM) | 0.05 µg/mL (≈ 0.0928 µM) | ≤ 0.025 µg/mL | 0.1 µg/mL (≈ 0.186 µM) | 0.05 µg/mL (≈ 0.0928 µM) | 0.8 µg/mL (≈ 1.49 µM) | – | – | – | – | – | – | –
14 | CO/N=C(\C(=O)N[C@@H]1C(=O)N2C(C(=O)[O-])=C(/C=C/C[N+]3(C)CC(O)CC3CO)CS[C@H]12)c1nsc(N)n1 (some centres unmarked) [Example 43] | 0.4 µg/mL (≈ 0.723 µM) | 0.05 µg/mL (≈ 0.0903 µM) | ≤ 0.025 µg/mL | 0.05 µg/mL (≈ 0.0903 µM) | ≤ 0.025 µg/mL | 1.56 µg/mL (≈ 2.82 µM) | – | – | – | – | – | – | –
15 | CO/N=C(\C(=O)N[C@@H]1C(=O)N2C(C(=O)[O-])=C(/C=C/C[N+]3(CCO)CCC(C(N)=O)CC3)CS[C@H]12)c1nsc(N)n1 (some centres unmarked) [Example 44-1] | 0.4 µg/mL (≈ 0.673 µM) | 0.05 µg/mL (≈ 0.0841 µM) | ≤ 0.025 µg/mL | 0.05 µg/mL (≈ 0.0841 µM) | 0.05 µg/mL (≈ 0.0841 µM) | 0.8 µg/mL (≈ 1.35 µM) | – | – | – | – | – | – | –
16 | CO/N=C(\C(=O)N[C@@H]1C(=O)N2C(C(=O)[O-])=C(/C=C/C[N+]3(CCO)CCC(C(N)=O)CC3)CS[C@H]12)c1nsc(N)n1 (some centres unmarked) [Example 44-2] | – | – | – | – | – | – | – | 0.4 µg/mL (≈ 0.673 µM) | ≤ 0.025 µg/mL | ≤ 0.025 µg/mL | 0.05 µg/mL (≈ 0.0841 µM) | ≤ 0.025 µg/mL | 0.8 µg/mL (≈ 1.35 µM)
17 | CO/N=C(\C(=O)N[C@@H]1C(=O)N2C(C(=O)[O-])=C(/C=C/C[N+]3(CC(N)=O)CC[C@@H](O)C3)CS[C@H]12)c1nsc(N)n1 (some centres unmarked) [Example 45-1] | 0.4 µg/mL (≈ 0.706 µM) | ≤ 0.025 µg/mL | ≤ 0.025 µg/mL | 0.05 µg/mL (≈ 0.0882 µM) | ≤ 0.025 µg/mL | 0.8 µg/mL (≈ 1.41 µM) | – | – | – | – | – | – | –
